Data taken from PMC12661400, “Oral bioavailable ITRI-148 degrades androgen receptor variants and overcomes antiandrogen resistance in advanced prostate cancer” (Neoplasia (New York, N.Y.), 2025).

Experiments:
Type in all cases: cell-based
[1] = tested on: VCaP; assay: MTT cell viability, 7 days; conditions: Homo sapiens, 168 h
Method: (§1) Cells were seeded in 96-well plates and treated with drugs the next day. After 7 days, viability was assessed using MTT assay.
(§2) (C) Western blot analysis of AR and AR-V7 in C4-2B and C4-2B/MDVR cells after 48-hour ITRI-148 treatment. […] DEGs were determined relative to DMSO or pLKO.1 vector control. […] RPL13A was used for normalization. […] AR, AR-V7, and PSA expression in the drug-treated cells were detected across treatment timepoints.

[2] = tested on: LNCaP95; assay: MTT cell viability, 7 days; conditions: LNCaP-95, 168 h
Method: as §1, §2

[3] = tested on: CWR22Rv1; assay: MTT cell viability, 7 days; conditions: 168 h
Method: as §1, §2

[4] = tested on: LNCaP; assay: MTT cell viability, 7 days; conditions: Homo sapiens, 168 h
Method: as §1, §2

[5] = tested on: AR; assay: AR degradation by immunoblotting in CRPC cells; conditions: 10 μM
Method: Cell lysis, Western blotting, and AR ubiquitination were performed as described in [17]. Primary antibodies: AR (Millipore 06-680), AR-V7 (RevMAb Biosciences 31-1109-00), PSA (ABclonal A4355), NKX3-1 (Cell Signaling Technology 92998), GAPDH (Cell Signaling Technology 2118) and β-Actin (Sigma-Aldrich A5441).
Fig. 1 ITRI-148 induces degradation of both AR and AR-V7 proteins in CRPC cells. […] (B) Expression of Flag-tagged AR-V7 in 293T cells following ITRI-148 treatment. Cells transiently expressing Flag-AR-V7 were pretreated with 50 μg/mL cycloheximide for 1 hour, then exposed to ITRI-148 at the indicated concentrations for 8 hours. AR-V7 expression was detected using an anti-Flag antibody. (C) Representative immunoblots showing AR protein levels in VCaP and CWR22Rv1 cells after 48 hours of ITRI-148 treatment. An N-terminal AR antibody was used to detect both full-length AR and LBD-truncated variants (AR-V(ΔLBD)) in CWR22Rv1 cells, while AR-V7 was detected using an AR-V7-specific antibody. DC₅₀ values were calculated from normalized band intensities, and Dₘₐₓ represents the maximal degradation achieved at 10 μM ITRI-148. (D) Immunofluorescence staining of AR after 24 or 48 hours of ITRI-148 treatment, detected using an N-terminal AR antibody. […] (F) Western blot analysis of ectopically expressed wild-type (WT) and mutant Myc-tagged AR in DU145 cells following 24 hours of treatment with 10 μM ITRI-148. Quantified AR levels are as indicated. TEXT PRINTED IN THE PICTURE: (C) ITRI-148: DC50 (μM) AR CWR22Rv1: 1.23 ± 1.86; DC50 (μM) AR VCaP: 0.05 ± 0.03; DC50 (μM) AR-V7 CWR22Rv1: 1.20 ± 0.92; DC50 (μM) AR-V7 VCaP: 0.02 ± 0.02; Dmax (%) AR CWR22Rv1: 65.02 ± 19.91; Dmax (%) AR VCaP: 80.49 ± 5.61; Dmax (%) AR-V7 CWR22Rv1: 72.10 ± 3.15; Dmax (%) AR-V7 VCaP: 91.36 ± 2.05

Row | IC50 [1] | IC50 [2] | IC50 [4] | Structure (SMILES) | IC50 [3] | degradation of the AR proteins (western blot) [5]
1 | > 10 µM | > 10 µM | 740 nM | N#Cc1ccc(O[C@H]2CC[C@H](NC(=O)c3ccc(N4CCC(CN5CCN(c6cc7c(cc6F)C(=O)N(C6CCC(=O)NC6=O)C7=O)CC5)CC4)nn3)CC2)cc1Cl (some centres unmarked) [ARV-110, reference compound] | > 10 µM | 
2 |  |  |  | CN1C(=O)CCC(N2C(=O)c3cccc(NCC(=O)N4CCC(N5CCC(C#Cc6ccc(C7CCN(C8=Nn9c(nnc9C(F)(F)F)CC8)CC7)cc6)CC5)CC4)c3C2=O)C1=O (centres unmarked) [inactive analog of ITRI-148] |  | failed to degrade the AR proteins
